Test results: patent publication US20260207578A1, “COMPOUND BASED ON SULFUR/OXYGEN SUBSTITUTED GLUTARIMIDE-BASED ISOINDOLINONE SKELETON AND USE THEREOF” (Gluetacs Therapeutics (Shanghai) Co., LTD., priority 2022, published 2026)

Legend:
IKZF2 = target: T1, IKZF2 (Homo sapiens, UniProt Q96SW2+Q9UKS7); experiment: Western-blot assay, substrate protein in hPBMCs; format: cell-based; conditions: hPBMC cells, 24 hours, tested at 50 nM and 500 nM, table does not say which
T1 construct: endogenous in cells; host or cells: human PBMCs (Milecell Biotechnologies)
Method in brief: (§1)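 Steps: treat hPBMCs 24 h; lyse on ice in RIPA with phosphatase inhibitors; quantify protein by BCA; denature at 95 °C and blot. Remaining protein (%) is the target/internal-control band ratio, normalised; degradation rate is its complement.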

GSPT1 = target: T2, GSPT1 (Homo sapiens, UniProt P15170+Q96SW2); experiment: Western-blot assay, substrate protein in hPBMCs; format: cell-based; conditions: hPBMC cells, 24 hours, tested at 50 nM and 500 nM, table does not say which
T2 construct: endogenous in cells; host or cells: human PBMCs (Milecell Biotechnologies)
Method in brief: as §1

CK1α = target: T3, CK1α (Homo sapiens, UniProt P48729+Q96SW2); experiment: Western-blot assay, substrate protein in hPBMCs; format: cell-based; conditions: hPBMC cells, 24 hours, tested at 50 nM and 500 nM, table does not say which
T3 construct: endogenous in cells; host or cells: human PBMCs (Milecell Biotechnologies)
Method in brief: as §1

Wee1 = target: T4, Wee1 (Homo sapiens, UniProt P30291+Q96SW2); experiment: Western-blot assay, substrate protein in hPBMCs; format: cell-based; conditions: hPBMC cells, 24 hours, tested at 50 nM and 500 nM, table does not say which
T4 construct: endogenous in cells; host or cells: human PBMCs (Milecell Biotechnologies)
Method in brief: as §1

IKZF3 = target: T5, IKZF3 (Homo sapiens, UniProt Q96SW2+Q9UKT9); experiment: Western-blot assay, substrate protein in hPBMCs; format: cell-based; conditions: hPBMC cells, 24 hours, tested at 50 nM and 500 nM, table does not say which
T5 construct: endogenous in cells; host or cells: human PBMCs (Milecell Biotechnologies)
Experimental: (§2) The effect of the compounds of the present disclosure on the expression of target proteins in cells was detected using conventional Western blot analysis.
(§3) Human peripheral blood mononuclear cells (hPBMCs) at a density of 1×10^6 cells/mL were thawed according to the PBMC Recovery Protocol (Milecell Biotechnologies Inc, Shanghai). The cells were then treated with the compounds of the present disclosure (including the compounds listed in Tables 1 and 2, and the Examples A1-A20 and 1-116 compounds) at concentrations of 50 nM and 500 nM.
(§4) Controls included a negative control (DMSO) and a positive control (the commercial immunomodulatory drug lenalidomide), both processed following the identical experimental protocol as the compounds of the present disclosure. After 24 hours of compounds treatment, cells were harvested and lysed in RIPA protein lysate containing phosphatase inhibitors on ice for 30-60 min, followed by centrifugation. The supernatant was aspirated as the extracted total cell protein. The protein concentration of the supernatant was determined using the conventional BCA (Bicinchoninic Acid) assay. The supernatant was then mixed with 4× SDS sample loading buffer, denatured at 95° C. for 5 minutes, and then subjected to SDS-PAGE electrophoresis on a polyacrylamide gel. Proteins were then transferred to a nitrocellulose (NC) membrane, blocked at room temperature for 1-2 h, and processed for antibody incubation and detection according to the manufacturer's instructions (Cell Signaling Technology).
(§5) Half-Maximal Degradation Concentration value (the drug concentration required for degrading proteins by 50%, abbreviated as DC50) reads method: comparing the grayscale values of Western blot bands from drug-treated samples with those from blank DMSO-treated controls, and identifying the drug concentration range at which the grayscale value is half that of the DMSO-treated control bands.
(§6) DC50 values can be calculated using ImageJ software to measure grayscale values of Western blot bands from drug-treated samples. The concentration-response curve is fitted to estimate the drug concentration corresponding to half the grayscale value.
(§7) Target protein remaining (%) refers to the percentage of target protein remaining in hPBMC cells after treatment with protein degrader compounds.
(§8) Calculation method for protein remaining (%): Use ImageJ software to measure grayscale values of Western blot bands from drug (protein degrader)-treated samples. The grayscale value of drug-treated bands is divided by that of internal control protein bands, and the resulting quotient is normalized to obtain the relative percentage of remaining target protein after protein degrader treatment.
(§9) Target protein degradation rate (%)=100%−target protein remaining (%).

[1] = target: T6, human Cereblon WT GST-tagged protein (Homo sapiens, UniProt Q96SW2); experiment: CRBN-binding affinity, HTRF (CEREBLON BINDING kit); conditions: displacement of Thalidomide-Re reagent, 3 hours at room temperature
T6 construct: purchased CISBIO 64BDCRBNPEH
Method in brief: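 HTRF competition format: compound, GST-tagged wild-type human Cereblon, Thalidomide-Re tracer and GST Eu antibody were combined in PROTAC binding buffer. Binding was derived from emission at 620 nm relative to blank and solvent control wells.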

IKZF1 = target: T7, IKZF1 (Homo sapiens, UniProt Q13422+Q96SW2); experiment: Western-blot assay, substrate protein in hPBMCs; format: cell-based; conditions: hPBMC cells, 24 hours, tested at 50 nM and 500 nM, table does not say which
T7 construct: endogenous in cells; host or cells: human PBMCs (Milecell Biotechnologies)
Experimental: as §2, §3, §4, §5, §6, §7, §8, §9

T5 sequence (Q9UKT9 whole entry): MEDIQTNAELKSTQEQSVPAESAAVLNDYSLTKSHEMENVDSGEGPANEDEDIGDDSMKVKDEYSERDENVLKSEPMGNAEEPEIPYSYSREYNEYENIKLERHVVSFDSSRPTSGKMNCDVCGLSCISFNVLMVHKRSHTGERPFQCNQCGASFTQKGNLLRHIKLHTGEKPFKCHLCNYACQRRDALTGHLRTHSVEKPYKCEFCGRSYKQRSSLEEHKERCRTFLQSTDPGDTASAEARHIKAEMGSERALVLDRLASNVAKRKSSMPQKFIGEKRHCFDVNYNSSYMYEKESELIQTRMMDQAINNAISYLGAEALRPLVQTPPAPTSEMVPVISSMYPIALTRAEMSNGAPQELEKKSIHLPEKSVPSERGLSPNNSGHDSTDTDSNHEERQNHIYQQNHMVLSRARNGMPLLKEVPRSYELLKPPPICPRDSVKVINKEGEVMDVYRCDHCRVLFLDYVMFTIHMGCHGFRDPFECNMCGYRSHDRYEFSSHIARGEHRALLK
T5 sequence (Q96SW2 whole entry): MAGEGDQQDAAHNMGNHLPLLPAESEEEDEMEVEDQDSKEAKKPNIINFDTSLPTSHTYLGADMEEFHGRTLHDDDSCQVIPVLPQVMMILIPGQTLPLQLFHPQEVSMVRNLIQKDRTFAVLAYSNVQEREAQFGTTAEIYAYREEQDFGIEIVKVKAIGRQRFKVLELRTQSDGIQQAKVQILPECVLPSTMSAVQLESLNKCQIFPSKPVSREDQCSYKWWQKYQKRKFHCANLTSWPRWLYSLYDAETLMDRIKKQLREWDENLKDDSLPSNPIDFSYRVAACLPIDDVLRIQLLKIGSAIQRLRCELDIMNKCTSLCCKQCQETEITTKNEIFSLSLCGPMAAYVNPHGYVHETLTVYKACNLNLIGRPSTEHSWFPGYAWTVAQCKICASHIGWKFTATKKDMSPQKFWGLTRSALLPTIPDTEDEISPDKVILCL
T5 sequence (Q16531 whole entry partner): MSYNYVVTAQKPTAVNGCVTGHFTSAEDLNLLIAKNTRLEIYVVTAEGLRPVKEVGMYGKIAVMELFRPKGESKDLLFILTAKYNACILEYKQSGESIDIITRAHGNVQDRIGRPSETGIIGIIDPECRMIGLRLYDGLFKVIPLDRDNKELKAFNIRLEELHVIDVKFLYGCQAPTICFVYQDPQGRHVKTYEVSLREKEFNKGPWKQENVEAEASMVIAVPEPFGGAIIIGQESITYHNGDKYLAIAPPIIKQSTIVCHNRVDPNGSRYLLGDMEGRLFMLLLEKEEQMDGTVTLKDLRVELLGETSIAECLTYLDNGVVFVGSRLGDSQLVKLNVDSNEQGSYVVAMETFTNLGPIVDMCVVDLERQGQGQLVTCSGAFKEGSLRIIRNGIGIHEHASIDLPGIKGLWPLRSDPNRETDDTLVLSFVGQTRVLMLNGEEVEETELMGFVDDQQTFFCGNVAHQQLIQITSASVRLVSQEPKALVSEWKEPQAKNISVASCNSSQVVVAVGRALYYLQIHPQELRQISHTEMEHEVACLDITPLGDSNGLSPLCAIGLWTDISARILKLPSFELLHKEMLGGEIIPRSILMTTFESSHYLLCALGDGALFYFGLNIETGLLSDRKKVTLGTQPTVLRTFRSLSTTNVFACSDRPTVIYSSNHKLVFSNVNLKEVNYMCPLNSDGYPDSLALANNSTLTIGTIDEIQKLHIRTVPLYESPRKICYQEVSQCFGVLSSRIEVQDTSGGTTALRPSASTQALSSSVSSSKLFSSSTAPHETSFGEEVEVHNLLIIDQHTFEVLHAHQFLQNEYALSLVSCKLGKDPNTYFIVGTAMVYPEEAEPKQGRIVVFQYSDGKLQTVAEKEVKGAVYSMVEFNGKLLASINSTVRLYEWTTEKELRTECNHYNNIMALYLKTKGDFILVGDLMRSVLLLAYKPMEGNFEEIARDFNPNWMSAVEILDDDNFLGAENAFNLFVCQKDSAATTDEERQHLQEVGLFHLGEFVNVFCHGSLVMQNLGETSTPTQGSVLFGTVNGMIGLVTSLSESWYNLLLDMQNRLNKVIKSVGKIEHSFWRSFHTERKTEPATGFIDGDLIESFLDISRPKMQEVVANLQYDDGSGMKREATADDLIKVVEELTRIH
T6 sequence (Q96SW2 whole entry): as the sequence (Q96SW2 whole entry) above
T3 sequence (P48729 whole entry): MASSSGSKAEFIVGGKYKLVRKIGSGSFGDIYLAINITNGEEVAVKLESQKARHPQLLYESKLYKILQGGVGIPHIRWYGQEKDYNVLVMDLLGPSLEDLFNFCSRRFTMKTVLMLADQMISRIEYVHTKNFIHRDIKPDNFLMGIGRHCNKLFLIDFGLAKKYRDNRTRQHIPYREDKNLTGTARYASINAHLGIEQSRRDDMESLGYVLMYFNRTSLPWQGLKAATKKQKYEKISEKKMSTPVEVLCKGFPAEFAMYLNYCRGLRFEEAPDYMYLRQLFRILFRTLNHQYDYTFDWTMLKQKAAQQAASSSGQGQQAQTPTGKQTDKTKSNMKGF
T3 sequence (Q96SW2 whole entry): as the sequence (Q96SW2 whole entry) above
T3 sequence (Q16531 whole entry partner): as the sequence (Q16531 whole entry partner) above
T2 sequence (P15170 whole entry): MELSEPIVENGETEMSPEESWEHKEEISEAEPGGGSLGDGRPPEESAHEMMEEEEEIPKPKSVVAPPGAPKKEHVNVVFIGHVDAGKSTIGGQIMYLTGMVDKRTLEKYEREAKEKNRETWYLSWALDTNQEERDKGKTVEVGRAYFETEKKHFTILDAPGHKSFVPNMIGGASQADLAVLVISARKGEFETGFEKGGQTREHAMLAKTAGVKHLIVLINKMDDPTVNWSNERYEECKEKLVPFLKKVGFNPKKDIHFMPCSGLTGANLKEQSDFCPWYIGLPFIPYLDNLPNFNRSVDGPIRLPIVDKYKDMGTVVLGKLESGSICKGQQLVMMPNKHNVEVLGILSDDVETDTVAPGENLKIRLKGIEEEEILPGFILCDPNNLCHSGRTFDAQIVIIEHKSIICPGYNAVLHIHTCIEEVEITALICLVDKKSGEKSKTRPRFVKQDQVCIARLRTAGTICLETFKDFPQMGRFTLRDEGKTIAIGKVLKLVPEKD
T2 sequence (Q96SW2 whole entry): as the sequence (Q96SW2 whole entry) above
T2 sequence (Q16531 whole entry partner): as the sequence (Q16531 whole entry partner) above
T4 sequence (P30291 whole entry): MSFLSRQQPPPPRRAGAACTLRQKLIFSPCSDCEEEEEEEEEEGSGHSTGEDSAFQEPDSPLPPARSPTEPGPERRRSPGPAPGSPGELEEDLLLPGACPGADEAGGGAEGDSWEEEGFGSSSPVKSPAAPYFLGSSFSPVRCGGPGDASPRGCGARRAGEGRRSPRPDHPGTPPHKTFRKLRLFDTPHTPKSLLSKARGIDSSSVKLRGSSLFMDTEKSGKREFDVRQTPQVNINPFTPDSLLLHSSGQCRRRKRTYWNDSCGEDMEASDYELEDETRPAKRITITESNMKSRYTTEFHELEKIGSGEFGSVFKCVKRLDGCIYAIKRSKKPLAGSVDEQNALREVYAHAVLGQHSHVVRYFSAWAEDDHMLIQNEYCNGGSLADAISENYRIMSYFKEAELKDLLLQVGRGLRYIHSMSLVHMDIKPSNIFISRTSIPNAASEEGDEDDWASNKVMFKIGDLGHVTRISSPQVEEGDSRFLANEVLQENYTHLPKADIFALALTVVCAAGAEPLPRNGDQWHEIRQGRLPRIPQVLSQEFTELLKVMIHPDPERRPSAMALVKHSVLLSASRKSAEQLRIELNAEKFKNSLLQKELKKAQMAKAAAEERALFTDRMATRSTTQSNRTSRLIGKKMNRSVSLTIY
T4 sequence (Q96SW2 whole entry): as the sequence (Q96SW2 whole entry) above
T4 sequence (Q16531 whole entry partner): as the sequence (Q16531 whole entry partner) above
T1 sequence (Q9UKS7 whole entry): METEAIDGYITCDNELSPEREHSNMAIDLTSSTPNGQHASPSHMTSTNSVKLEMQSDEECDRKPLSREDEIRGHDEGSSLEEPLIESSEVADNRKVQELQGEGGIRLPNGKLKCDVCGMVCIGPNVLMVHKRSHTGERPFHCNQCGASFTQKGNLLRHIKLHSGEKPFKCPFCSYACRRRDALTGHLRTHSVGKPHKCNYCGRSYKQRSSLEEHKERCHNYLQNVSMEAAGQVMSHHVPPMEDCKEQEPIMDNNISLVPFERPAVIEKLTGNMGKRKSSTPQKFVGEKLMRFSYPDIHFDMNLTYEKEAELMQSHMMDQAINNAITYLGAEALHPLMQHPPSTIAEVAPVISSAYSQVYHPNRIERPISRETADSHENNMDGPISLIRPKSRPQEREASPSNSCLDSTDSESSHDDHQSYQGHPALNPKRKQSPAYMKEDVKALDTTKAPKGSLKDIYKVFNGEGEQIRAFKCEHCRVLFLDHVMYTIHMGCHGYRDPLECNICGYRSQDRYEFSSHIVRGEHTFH
T1 sequence (Q96SW2 whole entry): as the sequence (Q96SW2 whole entry) above
T1 sequence (Q16531 whole entry partner): as the sequence (Q16531 whole entry partner) above

| SMILES | IC50 [1] [nM] | substrate protein remaining % (IKZF2) | substrate protein remaining % (GSPT1) | substrate protein remaining % (CK1α) | substrate protein remaining % (Wee1) | substrate protein remaining % (IKZF3) | substrate protein remaining % (IKZF1) |
| --- | --- | --- | --- | --- | --- | --- | --- |
| O=C1CCC(N2Cc3cc(OC4CCN(Cc5ccccc5-c5ccc(Cl)cc5)C4)ccc3C2=O)C(=O)N1 (stereo not shown) [GT-06817, 3-(5-((1-((4′-chloro-[1,1′-biphenyl]-2-yl)methyl)pyrrolidin-3-yl)oxy)-1-oxoisoindolin-2-yl)piperidine-2,6-dione] | 500 to 1000 | A (0%≤ substrate protein remaining % ≤80%) | A (0%≤ substrate protein remaining % ≤80%) | A (0%≤ substrate protein remaining % ≤80%) | A (0%≤ substrate protein remaining % ≤80%) | A (0%≤ substrate protein remaining % ≤80%) |  |
| O=C1CCC(N2Cc3cc(SC4CN(CC5=C(c6ccc(Cl)cc6)CCC(F)(F)C5)C4)ccc3C2=O)C(=O)N1 (stereo not shown) [GT-06516, 3-(5-((1-((4′-chloro-4,4-difluoro-3,4,5,6-tetrahydro-[1,1′-biphenyl]-2-yl)methyl)azetidin-3-yl)thio)-1-oxoisoindolin-2-yl)piperidine-2,6-dione] | 1000 to 1900 | A (0%≤ substrate protein remaining % ≤80%) | A (0%≤ substrate protein remaining % ≤80%) | A (0%≤ substrate protein remaining % ≤80%) | A (0%≤ substrate protein remaining % ≤80%) | A (0%≤ substrate protein remaining % ≤80%) |  |
| CC1(C)CCC(CN2CC(Sc3cccc4c3CN(C3CCC(=O)NC3=O)C4=O)C2)=C(c2ccc(Cl)cc2)C1 (stereo not shown) [GT-06515, 3-(4-((1-((4′-chloro-5,5-dimethyl-3,4,5,6-tetrahydro-[1,1′-biphenyl]-2-yl)methyl)azetidin-3-yl)thio)-1-oxoisoindolin-2-yl)piperidine-2,6-dione] | 500 to 1000 |  | A (0%≤ substrate protein remaining % ≤80%) | A (0%≤ substrate protein remaining % ≤80%) | A (0%≤ substrate protein remaining % ≤80%) | A (0%≤ substrate protein remaining % ≤80%) | A (0%≤ substrate protein remaining % ≤80%) |
| O=C1CCC(N2Cc3cc(OC4CN(Cc5cnc(-c6ccccc6)cn5)C4)ccc3C2=O)C(=O)N1 (stereo not shown) [GT-06353, 3-(1-oxo-5-((1-((5-phenylpyrazin-2-yl)methyl)azetidin-3-yl)oxy)isoindolin-2-yl)piperidine-2,6-dione] | 500 to 1000 |  | A (0%≤ substrate protein remaining % ≤80%) | A (0%≤ substrate protein remaining % ≤80%) | A (0%≤ substrate protein remaining % ≤80%) | A (0%≤ substrate protein remaining % ≤80%) | A (0%≤ substrate protein remaining % ≤80%) |
| CC1(C)CCC(CN2CC(Oc3cccc4c3CN(C3CCC(=O)NC3=O)C4=O)C2)=C(c2ccc(Cl)cc2)C1 (stereo not shown) [GT-06952, 3-(4-((1-((4′-chloro-5,5-dimethyl-3,4,5,6-tetrahydro-[1,1′-biphenyl]-2-yl)methyl)azetidin-3-yl)oxy)-1-oxoisoindolin-2-yl)piperidine-2,6-dione] | 500 to 1000 |  | A (0%≤ substrate protein remaining % ≤80%) | A (0%≤ substrate protein remaining % ≤80%) |  | A (0%≤ substrate protein remaining % ≤80%) | A (0%≤ substrate protein remaining % ≤80%) |
| CC1(C)CCC(CN2CC(Oc3ccc4c(c3)CN(C3CCC(=O)NC3=O)C4=O)C2)=C(c2ccc(Cl)cc2)C1 (stereo not shown) [GT-03369, 3-(5-((1-((4′-chloro-5,5-dimethyl-3,4,5,6-tetrahydro-[1,1′-biphenyl]-2-yl)methyl)azetidin-3-yl)oxy)-1-oxoisoindolin-2-yl)piperidine-2,6-dione] | 500 to 1000 |  | A (0%≤ substrate protein remaining % ≤80%) |  | A (0%≤ substrate protein remaining % ≤80%) | A (0%≤ substrate protein remaining % ≤80%) | A (0%≤ substrate protein remaining % ≤80%) |

Second part, led by results:

| IC50 [1] [nM] | SMILES | substrate protein remaining % (IKZF2) | substrate protein remaining % (GSPT1) | substrate protein remaining % (CK1α) | substrate protein remaining % (Wee1) | substrate protein remaining % (IKZF3) | substrate protein remaining % (IKZF1) |
| --- | --- | --- | --- | --- | --- | --- | --- |
| < 500 | O=C1CCC(N2Cc3cc(OC4CCN(C(c5ccccc5)c5ccccc5)C4)ccc3C2=O)C(=O)N1 (stereo not shown) [GT-06819, 3-(5-((1-benzhydrylpyrrolidin-3-yl)oxy)-1-oxoisoindolin-2-yl)piperidine-2,6-dione] | A (0%≤ substrate protein remaining % ≤80%) | A (0%≤ substrate protein remaining % ≤80%) | A (0%≤ substrate protein remaining % ≤80%) | A (0%≤ substrate protein remaining % ≤80%) | A (0%≤ substrate protein remaining % ≤80%) |  |
| < 500 | O=C1CCC(N2Cc3cc(SC4CC5CN(C(c6ccccc6)c6ccccc6)CC5C4)ccc3C2=O)C(=O)N1 (stereo not shown) [GT-06922, 3-(5-((2-benzhydryloctahydro-cyclopenta[c]pyrrol-5-yl)thio)-1-oxoisoindolin-2-yl)piperidine-2,6-dione] |  | A (0%≤ substrate protein remaining % ≤80%) | A (0%≤ substrate protein remaining % ≤80%) | A (0%≤ substrate protein remaining % ≤80%) | A (0%≤ substrate protein remaining % ≤80%) | A (0%≤ substrate protein remaining % ≤80%) |
| < 500 | O=C1CCC(N2Cc3cc(OC4CCN(C(c5ccccc5)c5ccccc5)CC4)ccc3C2=O)C(=O)N1 (stereo not shown) [GT-06195, 3-(5-((1-benzhydrylpiperidin-4-yl)oxy)-1-oxoisoindolin-2-yl)piperidine-2,6-dione] |  | A (0%≤ substrate protein remaining % ≤80%) | A (0%≤ substrate protein remaining % ≤80%) | A (0%≤ substrate protein remaining % ≤80%) | A (0%≤ substrate protein remaining % ≤80%) | A (0%≤ substrate protein remaining % ≤80%) |
| < 500 | O=C1CCC(N2Cc3cc(OC4CN(CC5=C(c6ccc(Cl)cc6)CCOC5)C4)ccc3C2=O)C(=O)N1 (stereo not shown) [GT-06354, 3-(5-((1-((4-(4-chlorophenyl)-5,6-dihydro-2H-pyran-3-yl)methyl)azetidin-3-yl)oxy)-1-oxoisoindolin-2-yl)piperidine-2,6-dione] |  | A (0%≤ substrate protein remaining % ≤80%) | A (0%≤ substrate protein remaining % ≤80%) | A (0%≤ substrate protein remaining % ≤80%) | A (0%≤ substrate protein remaining % ≤80%) | A (0%≤ substrate protein remaining % ≤80%) |
| < 500 | O=C1CCC(N2Cc3cc(OC4CN(C(c5ccccn5)c5ccccn5)C4)ccc3C2=O)C(=O)N1 (stereo not shown) [GT-06814, 3-(5-((1-(di(pyridin-2-yl)methyl)azetidin-3-yl)oxy)-1-oxoisoindolin-2-yl)piperidine-2,6-dione] | A (0%≤ substrate protein remaining % ≤80%) | A (0%≤ substrate protein remaining % ≤80%) | A (0%≤ substrate protein remaining % ≤80%) | A (0%≤ substrate protein remaining % ≤80%) | A (0%≤ substrate protein remaining % ≤80%) |  |
